Residue numbers refer to the chain shown, from its start. Read-outs that look alike come from different tables or passages of the source.
How the values were obtained:
Assay type in all cases: biochemical
HγS_N76D = target: T1, HγS_N76D (Homo sapiens, UniProt P22914, N77D); experiment: Thermal aggregation (72 °C, 20 min) turbidity assay, HγS_N76D; details: read-out: % Suppression; for inhibition: HγS_N76D, 75 μM protein, 72 °C 20 min
T1 sequence (P22914 1-178 N77D): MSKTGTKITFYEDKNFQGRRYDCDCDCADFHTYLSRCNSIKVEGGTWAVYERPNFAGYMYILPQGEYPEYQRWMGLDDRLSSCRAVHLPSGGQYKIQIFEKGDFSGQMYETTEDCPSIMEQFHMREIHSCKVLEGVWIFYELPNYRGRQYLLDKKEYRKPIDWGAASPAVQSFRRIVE
From the text: (§1) For a review, see the study by Roskamp et al. ([38]). […] For the mechanistic studies below these two compounds together with either drug M, chosen mostly as negative control, or the entire set of six compounds were used for comparison purpose, whereby the words “drug” or “compound” are used interchangeably in the studies later.

HγS_N143D = target: T2, HγS_N143D (Homo sapiens, UniProt P22914, N144D); experiment: Thermal aggregation (72 °C, 20 min) turbidity assay, HγS_N143D; details: 20 min, read-out: % Suppression; for inhibition: HγS_N143D, 75 μM protein, 72 °C 20 min
T2 sequence (P22914 1-178 N144D): T1 sequence (P22914 1-178 N77D) with D77N, N144D
From the text: as §1

OPJ-MγS = target: T3, OPJ-MγS (Mus musculus, UniProt O35486, F10S); experiment: End-point heat-mediated turbidity assay, OPJ-MγS; details: read-out: Percent Inhibition of heat mediated aggregation, OPJ-MGS
T3 construct: made in house; host or cells: E. coli BL21(DE3) pLysS, pET17b vector
T3 sequence (O35486 1-178 F10S): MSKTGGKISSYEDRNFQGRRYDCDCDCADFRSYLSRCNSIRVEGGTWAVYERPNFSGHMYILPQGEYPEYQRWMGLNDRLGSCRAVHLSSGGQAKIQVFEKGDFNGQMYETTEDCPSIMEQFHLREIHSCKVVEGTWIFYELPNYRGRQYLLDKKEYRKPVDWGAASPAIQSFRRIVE
Experimental: Absorbance was measured at 600 nm with a SpectraMax iD5 (Molecular Devices).
Aggregation kinetics assays at 600 nm in the presence of varying concentrations (0, 100, 200, 300, 400, and 500 μM) of our selected drugs were also performed on mutants of HγD (W43R, W42Q, R14C, and R58H) and MγS (F9S) at a concentration of 1 mg/ml in 50 mM K3PO4 buffer (pH 7.2) in a total volume of 100 μl. WT-HγD and WT-MγS crystallin served as controls for their respective mutant versions. […] Absorbance was monitored every 10 min. […] All the experiments were run in duplicates or triplicates.

WT-MγS = target: T4, WT-MγS (Mus musculus, UniProt O35486); experiment: Dynamic light scattering, WT-MγS; details: 400 μM drug; for Suppression of aggregate formation, DLS temperature scan: WT-MγS, 30–90 °C
T4 construct: made in house; host or cells: E. coli BL21(DE3) pLysS, pET17b vector
T4 sequence (O35486 1-178): T3 sequence (O35486 1-178 F10S) with S10F
Experimental: Efficacy of our selected drugs in preventing the formation of protein aggregates was measured by DLS. Measurements were performed on a Wyatt DynaPro Nanostar. For DLS temperature scan experiment, pure and filtered protein samples (1 mg/ml in 10 mM sodium phosphate buffer, pH 7.2) with and without drugs (400 μM) were analyzed by DLS over a temperature range of 30 to 90 °C. Multiple scans were run for every data point, and the results represent average of individual scans. DLS spectra were also recorded for the samples at the end point of turbidity assay.

R58H mutant of HγD = target: T5, R58H mutant of HγD (Homo sapiens, UniProt P07320, R59H); experiment: End-point turbidity assay (72 °C, 20 min) of R58H mutant; details: 500 μM drug, read-out: Inhibition of aggregation (%) R58H
T5 construct: made in house; host or cells: E. coli BL21(DE3) pLysS
T5 sequence (P07320 1-174 R59H): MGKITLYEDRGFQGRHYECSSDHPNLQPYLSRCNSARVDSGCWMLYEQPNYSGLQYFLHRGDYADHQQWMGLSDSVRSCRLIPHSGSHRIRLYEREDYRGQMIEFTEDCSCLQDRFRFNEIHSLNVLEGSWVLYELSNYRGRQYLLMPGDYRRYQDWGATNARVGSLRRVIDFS
Experimental: Aggregation kinetics assays at 600 nm in the presence of varying concentrations (0, 100, 200, 300, 400, and 500 μM) of our selected drugs were also performed on mutants of HγD (W43R, W42Q, R14C, and R58H) and MγS (F9S) at a concentration of 1 mg/ml in 50 mM K3PO4 buffer (pH 7.2) in a total volume of 100 μl. WT-HγD and WT-MγS crystallin served as controls for their respective mutant versions. For W43R mutant, aggregation assay was done at 42 °C for a total of 200 min. Absorbance was monitored every 10 min. For R14C and R58H mutants, end-point turbidity assay was done at 72 °C for 20 min. […] All the experiments were run in duplicates or triplicates.

[1] = 500 μM drug, end point of turbidity assay 72 °C 20 min

inhibition (HγS_N76D)	inhibition (HγS_N143D)	inhibition at 500 µM (OPJ-MγS; [1])	Percent Mass Peak 2 (WT-MγS; WT-MγS 45 μM, 72 °C 20 min)	Radius (nm) Peak 2 (WT-MγS; WT-MγS 45 μM, 72 °C 20 min)	SMILES	Suppression of aggregate formation, DLS temperature scan (WT-MγS)	inhibition at 125 µM (HγS_N76D)	inhibition at 125 µM (HγS_N143D)	inhibition at 500 µM (R58H mutant of HγD)	inhibition at 500 µM (OPJ-MγS)	Percent Mass Peak 1 (WT-MγS; WT-MγS 45 μM, 72 °C 20 min)	Radius (nm) Peak 1 (WT-MγS; WT-MγS 45 μM, 72 °C 20 min)
57%	25%	77.6 ± 0.21%	–	–	COC(=O)/C=C/C(C)=C\C=C\C(C)=C\C=C\C=C(C)\C=C\C=C(C)\C=C\C(=O)O [drug B, Bixin]	mild suppressive effects	–	–	–	–	–	–
–	–	–	–	–	Cc1cc(C(C#N)c2ccc(Cl)cc2)c(Cl)cc1NC(=O)c1cc(I)cc(I)c1O (centres unmarked) [drug C, Closantel]	strong suppressive effects	70%	52%	55%	82 ± 0.49%	100%	86.6 nm
–	–	–	–	–	CC(C)=CCCC1(C)C=Cc2c(O)c3c(c(CC=C(C)C)c2O1)OC12C(=CC4CC1C(C)(C)OC2(C/C=C(/C)C(=O)O)C4O)C3=O (centres unmarked) [drug D, dihydrogambogic acid]	mild suppressive effects	59%	30%	–	85.1 ± 0.68%	–	–
–	–	–	–	–	CC(C)=CCC[C@]1(C)C=Cc2c(O)c3c(c(CC=C(C)C)c2O1)O[C@]12C(=C[C@@H]4C[C@H]1C(C)(C)O[C@@]2(C/C=C(/C)C(=O)O)C4=O)C3=O [drug G, Gambogic acid]	strong suppressive effects	55%	48%	83%	91.6 ± 0.09%	100%	77.9 nm
55%	25%	33.6 ± 2.36%	98.6%	6200.7 nm	O=C(O)CCCCCCCCCCCC[C@@H]1C=CCC1 [drug M, Chaulmoogric acid]	no suppression	–	–	44%	–	1.4%	622.0 nm
–	–	–	–	–	Oc1c(Cl)cc(Cl)c(Cl)c1Cc1c(O)c(Cl)cc(Cl)c1Cl [drug X, Hexachlorophene]	mild suppressive effects	60%	50%	–	60.9 ± 0.8%	–	–
